Measured values as given in patent US20230139445A1, “BACTERIAL CELLS WITH IMPROVED TOLERANCE TO DIACIDS” (priority 2016, published 2023).

Assays:
[1] = system: Escherichia coli K-12 MG1655 knockout mutants; test: Growth Profiler growth screening of K-12 MG1655 single, double and triple knockout mutants in glutaric or adipic acid; type: cell-based
Description: Five colonies from wild-type K-12 MG1655 and 10 individual colonies deriving from each population were inoculated into 300 μL M9+1% glucose in 96 well deepwell plates and incubated in a 300 rpm plate shaker at 37° C. The next day, cells were diluted 10× in M9+1% glucose and 30 μL was transferred into clear-bottomed 96 well half-deepwell plates (with rectangular wells) containing M9+1% glucose and M9+1% glucose+52.78 g/L glutaric acid or 55.56 g/L adipic acid, such that the final concentration of glutaric acid or adipic acid was 47.5 g/L or 50 g/L, respectively. In addition, cryogenic glycerol stocks of the overnight culture were saved in a 96 well plate format. Half deepwell plates were incubated at 37° C. with 225 rpm shaking in a Growth Profiler (Enzyscreen), with optical scans of the plates taken at 15 minute intervals. Green pixel values integrated over a 1 mm diameter circular area in each well were converted to OD600 values using a previously determined calibration between OD600 and green pixel values. […] In general, it was attempted to select three isolates per population for further analysis, and all populations were represented in the resequenced isolates.
Selected isolates from the primary screen were restruck onto LB agar from the cryogenic stock made from the overnight culture plate for the primary screen. Five K-12 MG1655 colonies and three individual colonies from each isolate were inoculated as biological replicates into a new 96 well deepwell plate containing 300 μL of M9+1% glucose, and grown overnight as for the primary screen. The next day, a cryogenic stock and half deepwell plates containing M9+1% glucose with or without glutaric acid or adipic acid were inoculated using the plate of overnight cultures, and growth was measured as described for the primary screen.
Probable important losses-of-function were determined by identifying genes across all isolates that harboured mutations, especially those occurring in multiple populations, and by the presence of at least one mutation that either generated a premature stop codon, a frameshift mutation, or the presence of an insertion element sequence within the gene. For those genes, the corresponding knockout strain from the Keio collection of single knockout mutants (where each gene is replaced with a cassette consisting of a kanamycin resistance gene flanked by FRT sites) was used as a donor strain for P1vir phage transduction. Briefly, the Keio strain was grown to early exponential phase in LB+5 mM CaCl2 and 80 μL of a P1vir stock raised on K-12 MG1655 was added. After significant lysis was observed after 1.5 to 2 hours, the lysate was filter-sterilized to remove cells and stored at 4° C. Strain K-12 MG1655 was grown overnight in LB+5 mM CaCl2) and 100 μL of the overnight culture was mixed with 100 μL of the P1vir lysate of the Keio collection mutant, and the mixture was incubated at 37° C. without shaking for 20 minutes. The entire mixture was then plated on LB agar containing 1.25 mM sodium pyrophosphate as a chelating agent and 25 μg/mL kanamycin. One colony was then restruck on LB+1.25 mM […]+25 μg/mL kanamycin plate and analyzed for presence of the Keio cassette in place of the wild-type gene by colony PCR. When further knockouts were constructed in the same strain, the Keio cassette was flipped out to generate a scar sequence such that Kan^R marker could be recycled. […]

[2] = system: Escherichia coli K-12 MG1655 knockout mutants; test: as above; type: cell-based; remark: listed apart in the source
[3] = strain MG1655 ΔkgtP proV::kan, M9 + 50 g/L adipate (neutralized)
[4] = strain MG1655 ΔkgtP sspA::kan, M9 + 50 g/L adipate (neutralized)
[5] = strain MG1655, M9 + 25 g/L adipate (neutralized)
[6] = strain MG1655, M9 + 50 g/L adipate (neutralized)
[7] = strain MG1655 kgtP::kan, M9 + 25 g/L adipate (neutralized)
[8] = strain MG1655 kgtP::kan, M9 + 50 g/L adipate (neutralized)
[9] = strain MG1655 ΔkgtP proV::kan, M9 + 25 g/L adipate (neutralized)
[10] = strain MG1655 ΔkgtP pstS::kan, M9 + 25 g/L adipate (neutralized)
[11] = strain MG1655 ΔkgtP pstS::kan, M9 + 50 g/L adipate (neutralized)
[12] = strain MG1655 ΔkgtP sspA::kan, M9 + 25 g/L adipate (neutralized)
[13] = strain MG1655 ΔkgtP ΔproV nagC::kan, M9 + 25 g/L adipate (neutralized)
[14] = strain MG1655 ΔkgtP ΔproV nagC::kan, M9 + 50 g/L adipate (neutralized)
[15] = strain MG1655 ΔkgtP proV::kan, M9 + 47.5 g/L glutarate (neutralized)
[16] = strain MG1655 ΔkgtP sspA::kan, M9 + 47.5 g/L glutarate (neutralized)
[17] = strain MG1655, M9 + 23.8 g/L glutarate (neutralized)
[18] = strain MG1655, M9 + 47.5 g/L glutarate (neutralized)
[19] = strain MG1655 kgtP::kan, M9 + 23.8 g/L glutarate (neutralized)
[20] = strain MG1655 kgtP::kan, M9 + 47.5 g/L glutarate (neutralized)
[21] = strain MG1655 ΔkgtP nagC::kan, M9 + 23.8 g/L glutarate (neutralized)
[22] = strain MG1655 ΔkgtP nagC::kan, M9 + 47.5 g/L glutarate (neutralized)
[23] = strain MG1655 ΔkgtP proV::kan, M9 + 23.8 g/L glutarate (neutralized)
[24] = strain MG1655 ΔkgtP rnb::kan, M9 + 23.8 g/L glutarate (neutralized)
[25] = strain MG1655 ΔkgtP rnb::kan, M9 + 47.5 g/L glutarate (neutralized)
[26] = strain MG1655 ΔkgtP sspA::kan, M9 + 23.8 g/L glutarate (neutralized)
[27] = strain MG1655 ΔkgtP ΔproV nagC::kan, M9 + 23.8 g/L glutarate (neutralized)
[28] = strain MG1655 ΔkgtP ΔproV nagC::kan, M9 + 47.5 g/L glutarate (neutralized)

O=C(O)CCCCC(=O)O [adipic acid]
mean growth rate μ [1, 3]: 0.264 h⁻¹ | mean lag time tlag [1, 3]: 16.5 h | mean growth rate μ [1, 4]: 0.117 h⁻¹ | mean growth rate μ [2, 5]: 0.467 h⁻¹ | mean lag time tlag [2, 5]: 6.9 h | mean growth rate μ [2, 6]: 0.115 h⁻¹ | mean lag time tlag [2, 6]: 25.7 h | mean growth rate μ [2, 7]: 0.534 h⁻¹ | mean lag time tlag [2, 7]: 6.4 h | mean growth rate μ [2, 8]: 0.192 h⁻¹ | mean lag time tlag [2, 8]: 17.5 h | mean growth rate μ [2, 9]: 0.583 h⁻¹ | mean lag time tlag [2, 9]: 6.2 h | mean growth rate μ [2, 10]: 0.465 h⁻¹ | mean lag time tlag [2, 10]: 7.6 h | mean growth rate μ [2, 11]: 0.139 h⁻¹ | mean lag time tlag [2, 11]: 21.3 h | mean growth rate μ [2, 12]: 0.525 h⁻¹ | mean lag time tlag [2, 12]: 6.8 h | mean lag time tlag [2, 4]: 49.2 h | mean growth rate μ [2, 13]: 0.501 h⁻¹ | mean lag time tlag [2, 13]: 6.8 h | mean growth rate μ [2, 14]: 0.213 h⁻¹ | mean lag time tlag [2, 14]: 19.7 h

O=C(O)CCCC(=O)O [glutaric acid]
mean lag time tlag [1, 15]: 13.0 h | mean growth rate μ [1, 16]: 0.225 h⁻¹ | mean growth rate μ [2, 17]: 0.466 h⁻¹ | mean lag time tlag [2, 17]: 7.4 h | mean growth rate μ [2, 18]: 0.101 h⁻¹ | mean lag time tlag [2, 18]: 21.8 h | mean growth rate μ [2, 19]: 0.487 h⁻¹ | mean lag time tlag [2, 19]: 6.1 h | mean growth rate μ [2, 20]: 0.191 h⁻¹ | mean lag time tlag [2, 20]: 13.5 h | mean growth rate μ [2, 21]: 0.491 h⁻¹ | mean lag time tlag [2, 21]: 6.7 h | mean growth rate μ [2, 22]: 0.179 h⁻¹ | mean lag time tlag [2, 22]: 15.0 h | mean growth rate μ [2, 23]: 0.520 h⁻¹ | mean lag time tlag [2, 23]: 6.2 h | mean growth rate μ [2, 15]: 0.251 h⁻¹ | mean growth rate μ [2, 24]: 0.505 h⁻¹ | mean lag time tlag [2, 24]: 6.3 h | mean growth rate μ [2, 25]: 0.183 h⁻¹ | mean lag time tlag [2, 25]: 13.6 h | mean growth rate μ [2, 26]: 0.473 h⁻¹ | mean lag time tlag [2, 26]: 6.1 h | mean lag time tlag [2, 16]: 12.2 h | mean growth rate μ [2, 27]: 0.541 h⁻¹ | mean lag time tlag [2, 27]: 6.6 h | mean growth rate μ [2, 28]: 0.215 h⁻¹ | mean lag time tlag [2, 28]: 14.0 h
